Test results as given in patent publication US11007274B2, “Compounds for medicinal applications” (Ausvir Therapeutics Pty LTD, priority 2015, dated 2021).
In brackets after ≈: the same amount, converted by molar mass. Several values for one entry are separate records, joined by “and”; a condition that tells them apart may be missing. Equal values may be shown once. Read-outs that look alike come from different tables or passages of the source.

Tests used:
[1] = system: CA/07/2009; assay: microbe, parasite or virus in culture; assay type: cell-based; details: Table 7
[2] = system: Duck/MN/1525/81; assay type: cell-based; details: Table 7
[3] = system: Perth/16/2009; assay: microbe, parasite or virus in culture; assay type: cell-based; details: Table 7
[4] = system: Florida/4/2006; assay: microbe, parasite or virus in culture; assay type: cell-based; details: Table 7
[5] = system: A/PR/8 virus H1N1; assay: Viral Plaque Reduction Assay (Table 23); assay type: cell-based, influenza virus; details: Table 23, plaque reduction, read-out: EC50
[6] = system: A/Solomon Island/3/06; assay: microbe, parasite or virus in culture; assay type: cell-based; details: unidentified influenza virus, read-out: EC50 A/Solomon Island/3/06
[7] = system: A/Townsville/74/2011; assay: microbe, parasite or virus in culture; assay type: cell-based; details: unidentified influenza virus, read-out: EC50 A/Townsville/74/2011
[8] = system: A/Mississippi/03/01H274Y; assay type: cell-based, influenza virus
[9] = system: A/Perth/261/2009; assay: microbe, parasite or virus in culture; assay type: cell-based; details: unidentified influenza virus, read-out: EC50 A/Perth/261/2009
[10] = system: A/Victoria/170/2012; assay: microbe, parasite or virus in culture; assay type: cell-based; details: unidentified influenza virus, read-out: EC50 A/Victoria/170/2012
[11] = system: A/Sydney/5/97; assay: microbe, parasite or virus in culture; assay type: cell-based; details: unidentified influenza virus, read-out: EC50 A/Sydney/5/97
[12] = system: A/Victoria/503/06; assay: microbe, parasite or virus in culture; assay type: cell-based; details: unidentified influenza virus, read-out: EC50 A/Victoria/503/06
[13] = system: B/Townsville/2/2011; assay: microbe, parasite or virus in culture; assay type: cell-based; details: unidentified influenza virus, read-out: EC50 B/Townsville/2/2011
[14] = system: Influenza A virus H3N2, Perth/16/2009; assay: microbe, parasite or virus in culture; assay type: cell-based; details: read-out: EC90
[15] = system: Influenza A virus H3N2, Perth/16/2009; assay: microbe, parasite or virus in culture; assay type: cell-based
[16] = system: Influenza A virus H1N1, California/07/2009; assay: microbe, parasite or virus in culture; assay type: cell-based; details: read-out: EC90
[17] = system: Influenza A virus H1N1, California/07/2009; assay: microbe, parasite or virus in culture; assay type: cell-based
[18] = system: Influenza A virus H5N1, Duck/MN/1525/81; assay: microbe, parasite or virus in culture; assay type: cell-based
[19] = system: Influenza B virus, B/Florida/4/2006; assay: microbe, parasite or virus in culture; assay type: cell-based; details: Table 19, […], B/Florida/4/2006, read-out: EC50
[20] = system: Influenza B virus, B/Florida/4/2006; assay: microbe, parasite or virus in culture; assay type: cell-based
[21] = in vitro
[22] = system: PR8 influenza virus; assay: Viral clearance rates in the lung and nasal turbinates, weight loss (Table 6); assay type: in vivo, mice
[23] = system: CA/07/2009 virus H1N1; assay: Viral Plaque Reduction Assay (Table 22); assay type: cell-based; details: Influenza A virus, Table 22, plaque reduction, read-out: EC50

## CC(=O)N[C@H]1[C@H]([C@H](OC(=O)NCCCCCNC(=O)[C@@H]2C[C@H](C(=O)NCCCCCNC(=O)O[C@@H]([C@@H]3OC(C(=O)O)=C[C@H](N=C(N)N)[C@H]3NC(C)=O)[C@H](O)CO)C[C@H](C(=O)N[C@@H](CC(=O)O)C(=O)O)C2)[C@H](O)CO)OC(C(=O)O)=C[C@@H]1N=C(N)N [MD242, CHTCA(Zp)2-L-Asp]
[1]
  EC50: 6.58 nM
[1]; MDCK cell line
  EC50 CA/07/2009: 0.008 µg/mL (≈ 0.00658 µM)
[2]
  EC50: 0.7 nM
[3]
  EC50: 3.46 nM
  EC50 Perth/16/2009: 0.0042 µg/mL (≈ 0.00345 µM)
[4]
  EC50: 0.58 nM
  EC50 Florida/4/2006: 0.00071 µg/mL (≈ 0.000584 µM)

## CC(=O)N[C@H]1[C@H]([C@H](OC(=O)NCCCCCCCCNC(=O)CC(CC(=O)N[C@H](CS(=O)(=O)O)C(=O)N[C@H](CS(=O)(=O)O)C(=O)N[C@H](CS(=O)(=O)O)C(=O)O)C(=O)NCCCCCCCCNC(=O)O[C@@H]([C@@H]2OC(C(=O)O)=C[C@H](N=C(N)N)[C@H]2NC(C)=O)[C@H](O)CO)[C@H](O)CO)OC(C(=O)O)=C[C@@H]1N=C(N)N (stereo partly drawn) [MD343, PK2 TCA(Z0)2-[D-Cya]3-OH]
[5]
  EC50: 1.27 nM

## CC(=O)N[C@H]1C([C@H](OC(=O)NCCCCCCCCCNC(=O)[C@@H]2CC(C(=O)NCCCCCCNC(=O)O[C@H](C(O)CO)C3OC(C(=O)O)=C[C@H](NC(=N)N)[C@H]3NC(C)=O)C[C@H](C(=O)N[C@H](CC(=O)NC(CS(=O)(=O)O)C(=O)O)C(=O)N[C@H](CC(=O)NC(CS(=O)(=O)O)C(=O)O)C(=O)N[C@H](CC(=O)NC(CS(=O)(=O)O)C(=O)O)C(=O)O)C2)C(O)CO)OC(C(=O)O)=C[C@@H]1NC(=N)N (stereo partly drawn) [MD348, CHTCA(Z0)2-[D-Asp(D-Cyst)-D-Asp(D-Cyst)-D-Asp(D-Cyst)]-OH]
[6]
  EC50: 0.016 nM
[7]
  EC50: 0.06 nM
[8]
  EC50: 0.27 nM
[9]
  EC50: 0.35 nM
[10]
  EC50: 0.83 nM
[11]
  EC50: 1.26 nM
[12]
  EC50: 4.5 nM
[13]
  EC50: 0.28 nM
[5]; Influenza A virus
  EC50: 1.92 nM

## NC(=O)c1ncn([C@@H]2O[C@H](CO)[C@@H](O)[C@H]2O)n1 [Ribavirin, reference compound]
[14]
  EC90: 4.4 µg/mL (≈ 18 µM)
[15]
  EC50: 5 µg/mL (≈ 20.5 µM)
[16]
  EC90: 2.3 µg/mL (≈ 9.42 µM)
[17]
  EC50: 2.5 µg/mL (≈ 10.2 µM)
[18]
  EC90: 2.3 µg/mL (≈ 9.42 µM)
[19]
  EC50: 10 µg/mL (≈ 40.9 µM)
[20]
  EC50: 9.5 µg/mL (≈ 38.9 µM)
[21]; CC50, Table 9, line Neutral Red (Cytopathic effect/Toxicity)
  CC50: > 1000 µg/mL
[21]; CC50, Table 10, line Neutral Red (Cytopathic effect/Toxicity)
  CC50: > 1000 µg/mL
[21]; CC50, Table 11, line Neutral Red (Cytopathic effect/Toxicity)
  CC50: > 320 µg/mL
[21]; CC50, Table 12, line Neutral Red (Cytopathic effect/Toxicity)
  CC50: > 320 µg/mL
[21]; CC50, Table 13, line Neutral Red (Cytopathic effect/Toxicity)
  CC50: > 320 µg/mL
[21]; CC50, Table 14, line Neutral Red (Cytopathic effect/Toxicity)
  CC50: > 320 µg/mL
[21]; CC50, Table 15, line Neutral Red (Cytopathic effect/Toxicity)
  CC50: > 320 µg/mL
[21]; CC50, Table 16, line Neutral Red (Cytopathic effect/Toxicity)
  CC50: > 320 µg/mL
[21]; CC50, Table 18, line Neutral Red (Cytopathic effect/Toxicity)
  CC50: > 320 µg/mL
[21]; CC50, Table 19, Neutral Red (Cytopathic effect/Toxicity) rows
  CC50: > 320 µg/mL

## CC(=O)N[C@H]1[C@H]([C@H](O)[C@H](O)CO)OC(C(=O)O)=C[C@@H]1N=C(N)N [Zanamivir, reference compound]
[22]; Day 1
  lung viral titre, Group mean titres: 2.60 log10
[22]; Day 3
  lung viral titre, Group mean titres: 4.28 log10
[22]; Day 5
  lung viral titre, Group mean titres: 4.85 log10
[22]; Day 7
  lung viral titre, Group mean titres: 4.72 log10
[22]; days 3, 4 and 5, Bonferroni post-test p<0.001
  weight loss compared with PBS: significantly different from PBS
[22]; mouse, in vivo
  lung viral titre, Individual titres: 4.44 log10 and 4.66 log10 and 4.97 log10 (2×) and 4.19 log10 and 3.16 log10 and 4.84 log10 and 3.00 log10 and 5.77 log10 and 5.66 log10
[8]
  EC50: > 66 nM
[23]
  EC50: 0.00197 µg/mL and 5.93 nM
[5]; Influenza A virus
  EC50: 10200 nM
